Molecular target: T1, PI3K-Alpha kinase H1047R mutant (Homo sapiens, UniProt P42336, H1047R)
T1 construct: host or cells: MDA-MB-453
Test: PI3K-Alpha Kinase (PIK3CA) Activity, H1047R Mutant In Vitro Cell Based Assay (MDA-MB-453 cells, AlphaLisa SureFire Ultra)
Conditions: 0% FBS, 3 hours treatment, relative IC50
Method: PI3K-Alpha Kinase (PIK3CA) Activity, H1047R Mutant In Vitro Cell Based Assay and Determining IC50 Values for Inhibitors
The MDA-MB-453 (ATCC-HTB-131) cell line was obtained from the American Type Culture Collection (Manassas, VA). Cells were maintained in Dulbecco's Modified Eagle Media (DMEM, Gibco 11965-092) supplemented with 10% Fetal Bovine Serum, heat inactivated (FBS HI, Gibco 10082-147), 1× non-essential amino acids (NEAA, Gibco 11140-050), and 1 mM sodium pyruvate (Gibco 11360-070). Cultures were maintained in a humidified incubator at 37° C. under 5% CO2/95% air.
For compound testing in 0% FBS, MDA-MB-453 cells were seeded at a density of 1.5×10^4 cells per well in white 384-well plates in 20 μl of Minimum Essential Media (MEM) assay media with 1×NEAA, 1 mM sodium pyruvate, and 1 μg/mL human insulin (Sigma I9278). Compounds dissolved in 10 mM stock solutions in DMSO were serially diluted 1:3 in DMSO to generate a 10-point dilution series and plated using an acoustic liquid handler system (Echo 550 Series Liquid Handler, Labcyte). A 5× intermediate compound dilution plate in MEM with 1×NEAA and 1 mM sodium pyruvate (150 μM starting compound concentration in 1.5% DMSO) was then prepared. Five μl of the intermediate serially diluted compounds were added to the cell plate to final concentrations ranging from […] in 0.3% DMSO. 0.3% DMSO alone was used to establish the maximum (MAX) signal and GDC-0032 at a final concentration of 1 μM was used as a reference compound for the minimum (MIN) signal. After 3 hours treatment, the medium was removed, and the cells lysed in 10 μL of 1× SureFire Lysis buffer with shaking for 10 minutes at room temperature. The Acceptor Mix (Reaction Buffer 1+Reaction Buffer 2+Activation Buffer+SureFire Ultra Acceptor Beads) was prepared by diluting Activation buffer 25-fold in combined Reaction Buffer 1 and Reaction Buffer 2. The Acceptor beads were diluted 50-fold in the combined Reaction Buffers. Five μL of Acceptor Mix was added to each well, the plate was sealed and covered with foil and incubated for 1 hour at room temperature. The Donor Mix (dilution buffer+SureFire Ultra Donor Beads) was prepared by diluting Donor Beads 50-fold in dilution buffer. Five μL of the Donor Mix was added to each well and the plate sealed and covered with foil and incubated for 1 hour at room temperature in the dark. The plates were read on a Neo2 plate reader instrument from Biotek using standard AlphaLisa settings. Compounds were tested in duplicate and the average % inhibition at each compound concentration was used to generate a single dose response curve. The data were processed using the Genedata-Screener tool. Relative IC50 values were determined using luminescence units by calculating percent inhibition with respect to the in-plate “MIN” (GDC-0032 reference control) and “MAX” (DMSO) controls. The data was analyzed using a 4-parameter nonlinear logistic equation (four-parameter logistic concentration-response curve):
Y=bottom+[(top−bottom)/1+(X/IC50)slope]
where Y=% inhibition, X=concentration of inhibitor, bottom=minimum value of y attained by curve-fit, top=maximum value of y attained by curve-fit and slope=steepness of curve at the IC50.
% Inhibition=[(signal at X−median Min)/(median Max−median Min)]×100
IC50: concentration of compound that reduces a given response (ligand binding, enzyme response) by 50%. Relative IC50: concentration giving half the compound's maximum response.

T1 sequence (P42336 whole entry H1047R): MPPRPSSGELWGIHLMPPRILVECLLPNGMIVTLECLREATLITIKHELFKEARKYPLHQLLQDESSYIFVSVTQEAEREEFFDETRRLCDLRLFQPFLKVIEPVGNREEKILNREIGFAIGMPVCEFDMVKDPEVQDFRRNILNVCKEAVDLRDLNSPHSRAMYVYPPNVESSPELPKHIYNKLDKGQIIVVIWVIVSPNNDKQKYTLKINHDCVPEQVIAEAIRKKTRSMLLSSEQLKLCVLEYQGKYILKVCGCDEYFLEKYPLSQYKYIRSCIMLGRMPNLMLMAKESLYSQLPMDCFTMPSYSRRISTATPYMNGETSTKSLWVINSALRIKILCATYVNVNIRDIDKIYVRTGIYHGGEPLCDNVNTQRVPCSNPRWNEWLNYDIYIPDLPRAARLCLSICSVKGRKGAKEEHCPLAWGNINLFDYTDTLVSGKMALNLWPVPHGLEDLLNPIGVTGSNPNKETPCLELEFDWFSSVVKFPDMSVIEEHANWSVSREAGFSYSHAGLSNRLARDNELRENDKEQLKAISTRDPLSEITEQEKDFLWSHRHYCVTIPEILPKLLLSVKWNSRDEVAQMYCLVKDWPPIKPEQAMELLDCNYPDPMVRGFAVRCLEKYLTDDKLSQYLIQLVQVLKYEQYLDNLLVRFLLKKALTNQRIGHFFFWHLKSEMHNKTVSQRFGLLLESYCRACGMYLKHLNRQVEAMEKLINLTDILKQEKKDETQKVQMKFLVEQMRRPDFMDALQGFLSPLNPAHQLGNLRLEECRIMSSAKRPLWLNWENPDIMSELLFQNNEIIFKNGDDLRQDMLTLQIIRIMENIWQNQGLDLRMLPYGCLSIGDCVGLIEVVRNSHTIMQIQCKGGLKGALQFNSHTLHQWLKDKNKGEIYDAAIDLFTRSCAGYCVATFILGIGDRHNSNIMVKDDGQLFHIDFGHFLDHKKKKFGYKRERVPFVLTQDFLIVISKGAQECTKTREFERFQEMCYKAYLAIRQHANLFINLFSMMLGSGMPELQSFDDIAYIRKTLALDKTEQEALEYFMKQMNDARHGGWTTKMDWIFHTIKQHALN
T1 sequence (P27986 whole entry partner): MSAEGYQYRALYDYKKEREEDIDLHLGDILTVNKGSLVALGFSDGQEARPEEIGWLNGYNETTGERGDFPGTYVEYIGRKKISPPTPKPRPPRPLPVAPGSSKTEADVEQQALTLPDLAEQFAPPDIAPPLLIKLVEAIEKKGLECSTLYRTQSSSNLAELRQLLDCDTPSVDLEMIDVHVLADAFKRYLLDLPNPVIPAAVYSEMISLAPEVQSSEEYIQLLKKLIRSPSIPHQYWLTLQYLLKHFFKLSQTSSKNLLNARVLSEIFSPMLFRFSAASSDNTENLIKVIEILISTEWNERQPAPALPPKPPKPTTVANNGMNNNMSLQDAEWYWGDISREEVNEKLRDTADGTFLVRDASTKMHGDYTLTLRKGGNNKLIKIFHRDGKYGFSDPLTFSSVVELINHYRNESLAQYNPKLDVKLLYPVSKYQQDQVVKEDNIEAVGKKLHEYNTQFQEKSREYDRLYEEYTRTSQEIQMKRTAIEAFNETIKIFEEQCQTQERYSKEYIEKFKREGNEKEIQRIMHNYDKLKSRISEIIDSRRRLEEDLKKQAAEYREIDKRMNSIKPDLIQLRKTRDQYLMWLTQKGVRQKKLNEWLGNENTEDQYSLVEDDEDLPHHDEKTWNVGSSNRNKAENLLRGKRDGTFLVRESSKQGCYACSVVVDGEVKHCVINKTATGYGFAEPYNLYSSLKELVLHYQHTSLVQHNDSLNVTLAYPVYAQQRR

| IC50 [nM] | SMILES |
| --- | --- |
| < 500 | Cc1cc([C@@H](C)Nc2cccnc2C(=O)N[C@@H]2CCOC2)c2oc(-c3ccccc3)c(C)c(=O)c2c1 [Example 178A, 3-[[(1R)-1-(3,6-Dimethyl-4-oxo-2-phenyl-chromen-8-yl)ethyl]amino]-N-[(3R)-tetrahydrofuran-3-yl]pyridine-2-carboxamide] |
| < 500 | Cc1cc([C@@H](C)Nc2ccccc2CO)c2oc(-c3cccnc3)c(C)c(=O)c2c1 [Example 224C, 8-[(1R)-1-[2-(Hydroxymethyl)anilino]ethyl]-3,6-dimethyl-2-(3-pyridyl)chromen-4-one] |
